For assay [1], the system named is mice carrying inherited or chemically-induced ataxia mutations. As to conditions: Saigoh et al. 1998, cited from earlier work; for Concentration of endogenous D-serine in the cerebellum: ataxic mutant mice; for Effect on ataxia: mice carrying inherited or chemically-induced ataxia mutations.
Assay [2] has as its system C57B16 mice. The assay is described as follows: Delayed eyeblink conditioning test (dEBC). The settings on record: Group E, scopolamine 0.3 mg/kg subcutaneous. The class given is in vivo, mouse. The text has this: Three-month old, male C57B16 mice were implanted with recording electrodes in the orbicularis oculi muscle and with stimulating electrodes on the supraorbital nerve. For classical conditioning, animals were presented with a 350-ms tone as a conditioned stimulus (CS) at the end of which received an electrical pulse in the supraorbital nerve as unconditioned stimulus (US). Classical conditioning was achieved using a delay paradigm. For this, a tone (350 ms, 2 kHz, 85-90 dB) was presented as CS. The US consisted of a paired pulse with 1 millisecond of inter-pulse interval. Each pulse lasted for 0.1 millisecond. The US was presented at the end of the CS. A total of two habituation, ten conditioning, and five extinction sessions were carried out for each animal. Further details of this method can be found in the article by Gruart A., “Involvement of the CA3-CA1 synapse in the acquisition of associative learning in behaving mice”, J. Neurosci., 2006, 26, 1077-1087.
The effects on associative learning of a DAAO inhibitor compound of the invention were compared against different control and scopolamine-administered groups. Scopolamine is io a non-selective muscarinic receptor antagonist shown to consistently produce impairment of learning in rodents (see Klinkenberg, A., “The validity of scopolamine as a pharmacological model for cognitive impairment: A review of animal behavioral studies” Neuroscience and Biobehavioral Reviews, 2010, 34, 1307-1350.
is Nine groups, each containing 15 mice except for the untreated control group which contained 14 mice, were tested:
Group A was orally administered with Vehicle 1 (an aqueous solution of 0.5% methyl cellulose);
Group B was orally administered with a solution of a DAAO inhibitor of formula (I) in Vehicle 1 at a dose of 0.1 mg/kg (Solution 1);
Group C was orally administered with a solution of a DAAO inhibitor of formula (I) (the same one as for Group B) in Vehicle 1 at a dose of 1.0 mg/kg (Solution 2);
Group D was administered subcutaneously with Vehicle 2 (distilled water);
Group E was administered subcutaneously with a solution of scopolamine in Vehicle 2 at a dose of 0.3 mg/kg (Solution 3);
Group F was administered orally with Solution 1 and subcutaneously with Solution 3;
Group G was administered orally with Solution 2 and subcutaneously with Solution 3;
Group H was administered orally with Vehicle 1 and subcutaneously with Vehicle 2;
Group I was the untreated control group.

Turning to `N[C@@H]1CONC1=O` [D-cycloserine], in assay [1], the “Concentration of endogenous D-serine in the cerebellum” value is “increase in the concentration of endogenous D-serine in the cerebellum” and the Effect on ataxia entry was “ameliorating effect on ataxia”.
Regarding `CCOC(=O)[C@H](N)CO` [D-serine ethylester], in assay [1], the “Concentration of endogenous D-serine in the cerebellum” value was “increase in the concentration of endogenous D-serine in the cerebellum” and the Effect on ataxia result is “ameliorating effect on ataxia”.
For the compound `CN1[C@@H]2C[C@@H](OC(=O)[C@H](CO)c3ccccc3)C[C@H]1[C@@H]1O[C@@H]12` [scopolamine], the “Mean Percentage of Conditioned Responses (%)” value (shortened to “Mean Percentage … (%)”) is given as 37.67% in assay [2] (conditioning session 1); 40.33% in assay [2] (conditioning session 2); 43.78% in assay [2] (conditioning session 3); 43.33% in assay [2] (conditioning session 4); 45.67% in assay [2] (conditioning session 5); 45.98% in assay [2] (conditioning session 6). In addition, the “Mean Percentage … (%)” value in assay [2] (conditioning session 7) came out at 48.78%; in assay [2] (conditioning session 8), 51.56%; in assay [2] (conditioning session 9) it was 51.33%; in assay [2] (conditioning session 10) it was 52.56%; in assay [2] (extinction session 1), 51.22%; in assay [2] (extinction session 2), 45.78%. The “Mean Percentage … (%)” value stood at 43.78% in assay [2] (extinction session 3); 42.00% in assay [2] (extinction session 4); 43.22% in assay [2] (extinction session 5); 26.44% in assay [2] (habituation session 1); 27.44% in assay [2] (habituation session 2).

The values above are taken from US20170014407A1, “PYRIDAZINE DERIVATIVES FOR USE IN THE PREVENTON OR TREATMENT OF AN ATAXIC DISORDER” (TAKEDA PHARMACEUTICAL COMPANY LIMITED, priority 2014, published 2017).
